Measurements as given in PMC11017246, “Discovery of GLPG2737, a Potent Type 2 Corrector of CFTR for the Treatment of Cystic Fibrosis in Combination with a Potentiator and a Type 1 Co-corrector” (Journal of Medicinal Chemistry, 2024).

Experiments:
[1] = test system: CYP3A4; assay: CYP3A4 induction (mRNA) in human hepatocytes; format: in vitro ADME; conditions: for CYP (3A4) mRNA induction, result in words: compared with positive control rifampicin
Description: Cryopreserved human hepatocytes from a single donor were seeded at 0.1 × 10^6 cells/well. The next day, cells were dosed with test compound in assay medium (final test compound concentration 10 μM; final DMSO concentration 0.1%). Positive control inducer, rifampicin, for CYP3A4, was incubated alongside the test compound. Negative control wells were included where the test compound is replaced by vehicle solvent (0.1% DMSO in assay medium). Each test or control compound was dosed in triplicate at a single concentration (10 μM). The cells were exposed to the solutions for 72 h with fresh solution added every 24 h. For mRNA assessment, all media was removed from each of the wells, and the cells were washed once. The cells were lysed, and total RNA was then isolated from the hepatocyte lysates. Reverse transcription was performed, and quantitative PCR analysis was performed on the resulting cDNA, using gene-specific primer probe sets for CYP3A4 target cDNA and endogenous control. Samples were analyzed using an ABI 7900 HT real time PCR system. For mRNA assessment, relative fold mRNA expression was determined based on the threshold cycle (CT) data of target gene relative to endogenous control for each reaction and normalized to negative control using the 2-ΔΔCT method. Data were expressed as fold activation relative to the vehicle control and, as a percent, to the 10 μM rifampicin using the following formula: % of positive control = ((fold increase of the cpd relative to vehicle control – 1)/(fold increase of the rifampicin at 10 μM – 1)) × 100.

[2] = target: T1, CYP2C9 (Homo sapiens, UniProt P11712); assay: CYP reversible inhibition in HLM, CYP2C9; format: in vitro ADME; conditions: probe not given; read-out: CYP inhibition IC50, 2C9
T1 construct: tissue BD Gentest; host or cells: human liver microsomes
Description: (§1) Test compounds were diluted in methanol and then added to mixture containing 50 mM potassium phosphate buffer, pH 7.4, human liver microsomes (BD Gentest) and probe substrate. After prewarming for 5 min at 37 °C, the reaction was started by adding cofactor mix (7.65 mg/mL glucose-6-phosphate, 1.7 mg/mL NADP, 6 U/mL of glucose-6-phosphate dehydrogenase), resulting in seven final concentrations of test compounds in the range 0.14–100 μM (2% methanol). Isoform specific conditions regarding probe substrate and microsomal protein concentrations are available in Table 2. Final concentrations of cofactor mix components were as follows: 1.56 mg/mL glucose-6-phosphate, 0.34 mg/mL NADP, and 1.2 U/mL glucose-6-phosphate dehydrogenase. After incubation at 37 °C, the reaction was terminated with acetonitrile:methanol (2:1) solution with internal standard. Samples were centrifuged, and the supernatant fractions were analyzed by LC-MS/MS. The instrument responses (test compounds and internal standard peak areas) were referenced to those for solvent controls (assumed as 100%) in order to determine the percentage reduction in probe metabolism. Percent of control activity vs concentration plots were generated and fitted using GraphPad Prism software to generate IC50.

[3] = Plasma protein binding, human; format: in vitro ADME; conditions: human, plasma, pH 7.4, human plasma; read-out: PPB % human (converted)
Description: (§2) Plasma protein binding was determined by equilibrium dialysis using the Pierce Red Device plate with inserts (ThermoScientific). Test compound at 5 μM (0.5% DMSO) spiked in freshly thawed human, rat, mouse, or dog plasma (Bioreclamation INC, Westbury, NY, USA) was dialyzed against phosphate-buffered saline (PBS, pH 7.4) at 37 °C under shaking for 4 h. Aliquots were taken from each side of the well, and matrix matched. Proteins were precipitated with an excess of acetonitrile, samples were mixed and centrifuged, and the supernatant was analyzed by liquid chromatography–mass spectrometry/mass spectrometry (LC–MS/MS). Addition of compound peak areas in the buffer chamber and the plasma chamber was considered to be 100% compound.

[4] = PK rat; format: in vivo
Description: These studies were performed with naïve male Sprague–Dawley rats (Janvier France, 6–8 weeks old). Rats were dosed iv via a bolus in the tail vein with a dose level of 0.1 mg/kg or orally as a single esophageal gavage with a dose level of 5 mg/kg. For the iv route, the compound was formulated in PEG200/water (60/40; v/v). For the oral route, the compound was formulated in MC 0.5% (2/98) as a homogeneous suspension. Before the oral dosing, the animals were deprived of food for at least 12 h before compound administration until 3 h after administration. All animals had free access to the tap water. Blood samples were collected under light anesthesia and placed into tubes containing Li-heparin as an anticoagulant. Blood samples were collected up to 24 h after dosing (n = 3 rats per route). After centrifugation, the resulting plasma samples were assayed by LC-MS/MS with a nongood laboratory practice (non-GLP)-validated method. PK parameters were calculated by noncompartmental analysis using WinNonlin software (Certara, Princeton, NJ, USA).

[5] = Plasma protein binding, rat; format: in vitro ADME; conditions: pH 7.4, read-out: PPB % rat (converted)
Description: as §2

[6] = test system: cytochrome P450 subtypes except 2C9; assay: CYP inhibition, all subtypes except 2C9; format: in vitro ADME; conditions: human, liver microsomes, pH 7.4
Description: as §1

[7] = target: CYP3A4 enzyme (Homo sapiens, UniProt P08684); assay: Mechanism-based inactivation of CYP3A4; format: in vitro ADME
[8] = target: T2, ΔF508 CFTR (Homo sapiens, UniProt P13569, DEL508-508); assay: TECC (transepithelial clamp circuit) in primary CF-derived HBE cells; format: cell-based
T2 construct: host or cells: CFBE41o- TetON cells, expression induced with doxycycline
Description: Bronchial epithelial cells isolated from the lungs of patients with CF homozygous for the ΔF508 CFTR mutation were obtained from McGill University (Montreal, QC, Canada) or the University of North Carolina (Chapel Hill, NC, United States). Cells were isolated from lungs obtained from donors undergoing planned transplantation. These primary cells were cultured directly on type IV collagen-coated polycarbonate Transwell supports with a diameter of 6.5 mm and pore size of 0.4 μm (Costar, #3397) for 18–25 days in an air–liquid interface, essentially as previously described for TECC.[23]
Twenty-four hours prior to the electrophysiological recording, corrector and/or potentiator compounds were added on both the apical and basolateral sides. TECC recordings were performed by using the TECC instrument developed and sold by EP Design (Bertem, Belgium). During the recording, the epithelial cells were bathed in a NaCl-Ringer solution (120 mM NaCl, 20 mM HEPES, 1.2 mM CaCl2, 1.2 mM MgCl2, 0.8 mM KH2PO4, 0.8 mM K2HPO4, 5 mM glucose, pH 7.4) on both the basolateral (640 μL) and the apical (160 μL) sides and kept at 37 °C. Corrector and potentiator compounds were readded at the same concentration used during the 24 h pretreatment. Apical amiloride was used to inhibit the endogenous ENaC currents (100 μM), while forskolin (10 μM) was applied on both the apical and basolateral sides to stimulate CFTR. Measurements were done during a 20 min time frame with recordings every 2 min. The transepithelial potential and transepithelial resistance were measured in an open circuit and transformed to Ieq using Ohm’s law. The maximal increase in Ieq (ΔIeq, the difference in current before and after forskolin or potentiator treatment) was used as a measure for the increased CFTR activity. EC50 values were generated by measuring the impact of different concentrations of compounds on ΔIeq in primary cells. For this purpose, each transwell was treated with a different compound concentration. CFTRInh-172 was added apically at 10 μM to assess the specificity of the response. Dose response data was fitted using a 3-parameter hill function of the form Response = Bottom + (Top – Bottom)/(1 + (EC50/concentration)) to determine EC50 values. Percentage efficacy was calculated using the following formula: (max response – neg control)/(C1 response – neg control).

[9] = Plasma protein binding, dog; format: in vitro ADME; conditions: dog, plasma, pH 7.4, dog plasma; read-out: PPB % dog (converted)
Description: as §2

[10] = PK dog; format: in vivo; conditions: iv
Description: These studies were performed with non-naïve male Beagle dogs (age 13.8 months old, origin: Marshall US, North Rose, NY 14516, USA; age 15.8 months old, origin: Harlan; age 17.7 months old, origin: Harlan). Dogs (n = 3) were dosed iv via a 10 min infusion via a catheter with a dose level of 1 mg/kg. After a washout of 3 days, they were dosed orally as a single gavage with a dose level of 5 or 1 mg/kg in PEG400/MC 0.5% or MC 0.5%. Before administration by the po route, animals were fasted for a period of at least 12 h before treatment, and food was given just after the 3 h of blood sampling. All animals had free access to tap water. Blood samples were taken without an anesthetic from a jugular or cephalic vein into tubes containing lithium heparin as an anticoagulant. Blood samples were taken up to 24 h after the start of the infusion. After centrifugation, the resulting plasma samples were assayed by LC-MS/MS with a nongood laboratory practice (non-GLP)-validated method. PK parameters were calculated by noncompartmental analysis using WinNonlin software (Certara, Princeton, NJ, USA).

T2 sequence (P13569 with tags, fused parts or gaps DEL508-508): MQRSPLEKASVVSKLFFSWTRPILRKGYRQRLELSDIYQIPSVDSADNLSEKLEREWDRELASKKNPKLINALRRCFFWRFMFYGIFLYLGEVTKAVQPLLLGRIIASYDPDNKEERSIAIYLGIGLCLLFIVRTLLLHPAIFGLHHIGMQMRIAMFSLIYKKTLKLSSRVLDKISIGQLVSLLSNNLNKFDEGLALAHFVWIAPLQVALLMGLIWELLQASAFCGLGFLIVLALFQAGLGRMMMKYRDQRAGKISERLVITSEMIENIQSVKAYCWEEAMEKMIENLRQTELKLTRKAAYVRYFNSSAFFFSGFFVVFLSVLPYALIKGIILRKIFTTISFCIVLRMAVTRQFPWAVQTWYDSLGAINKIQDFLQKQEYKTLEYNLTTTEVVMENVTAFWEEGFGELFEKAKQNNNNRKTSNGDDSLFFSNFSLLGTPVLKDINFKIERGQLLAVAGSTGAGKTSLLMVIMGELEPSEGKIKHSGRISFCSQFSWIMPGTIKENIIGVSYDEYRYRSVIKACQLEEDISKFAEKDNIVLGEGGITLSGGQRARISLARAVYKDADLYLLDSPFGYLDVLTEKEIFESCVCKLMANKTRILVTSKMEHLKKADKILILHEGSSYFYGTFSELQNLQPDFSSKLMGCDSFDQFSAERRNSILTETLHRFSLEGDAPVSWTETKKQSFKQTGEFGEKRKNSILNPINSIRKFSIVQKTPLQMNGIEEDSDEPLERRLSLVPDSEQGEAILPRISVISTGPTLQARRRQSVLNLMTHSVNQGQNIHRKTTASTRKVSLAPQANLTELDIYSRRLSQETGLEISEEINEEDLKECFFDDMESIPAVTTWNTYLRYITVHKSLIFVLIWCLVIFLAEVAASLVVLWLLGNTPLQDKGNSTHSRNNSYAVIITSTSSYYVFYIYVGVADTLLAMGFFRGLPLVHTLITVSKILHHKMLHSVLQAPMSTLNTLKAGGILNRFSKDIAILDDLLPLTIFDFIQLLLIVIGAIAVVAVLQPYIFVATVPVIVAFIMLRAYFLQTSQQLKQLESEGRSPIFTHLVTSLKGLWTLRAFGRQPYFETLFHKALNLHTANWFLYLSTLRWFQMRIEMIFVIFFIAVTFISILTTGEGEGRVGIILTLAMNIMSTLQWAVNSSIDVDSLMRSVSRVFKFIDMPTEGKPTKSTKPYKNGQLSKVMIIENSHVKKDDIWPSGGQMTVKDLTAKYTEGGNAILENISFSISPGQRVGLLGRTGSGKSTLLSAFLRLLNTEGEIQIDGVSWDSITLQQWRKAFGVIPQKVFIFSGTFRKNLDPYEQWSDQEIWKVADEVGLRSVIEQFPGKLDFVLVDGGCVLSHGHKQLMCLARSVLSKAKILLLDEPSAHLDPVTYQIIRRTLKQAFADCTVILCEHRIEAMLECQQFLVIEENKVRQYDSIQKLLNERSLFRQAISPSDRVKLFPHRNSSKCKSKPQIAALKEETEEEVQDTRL
T1 sequence (P11712 whole entry): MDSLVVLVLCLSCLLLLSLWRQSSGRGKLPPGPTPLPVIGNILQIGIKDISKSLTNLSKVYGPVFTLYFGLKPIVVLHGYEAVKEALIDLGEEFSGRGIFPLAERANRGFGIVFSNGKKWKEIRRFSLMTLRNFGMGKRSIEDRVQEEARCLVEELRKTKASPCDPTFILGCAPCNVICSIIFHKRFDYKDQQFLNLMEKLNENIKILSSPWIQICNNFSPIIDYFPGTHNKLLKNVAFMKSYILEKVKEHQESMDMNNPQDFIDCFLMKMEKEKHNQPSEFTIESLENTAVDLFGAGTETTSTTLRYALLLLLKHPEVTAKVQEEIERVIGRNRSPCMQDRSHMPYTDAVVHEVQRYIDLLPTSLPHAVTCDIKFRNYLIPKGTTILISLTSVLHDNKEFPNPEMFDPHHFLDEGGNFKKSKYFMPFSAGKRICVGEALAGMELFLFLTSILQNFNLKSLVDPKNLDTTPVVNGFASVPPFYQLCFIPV
CYP3A4 enzyme, sequence (P08684 whole entry): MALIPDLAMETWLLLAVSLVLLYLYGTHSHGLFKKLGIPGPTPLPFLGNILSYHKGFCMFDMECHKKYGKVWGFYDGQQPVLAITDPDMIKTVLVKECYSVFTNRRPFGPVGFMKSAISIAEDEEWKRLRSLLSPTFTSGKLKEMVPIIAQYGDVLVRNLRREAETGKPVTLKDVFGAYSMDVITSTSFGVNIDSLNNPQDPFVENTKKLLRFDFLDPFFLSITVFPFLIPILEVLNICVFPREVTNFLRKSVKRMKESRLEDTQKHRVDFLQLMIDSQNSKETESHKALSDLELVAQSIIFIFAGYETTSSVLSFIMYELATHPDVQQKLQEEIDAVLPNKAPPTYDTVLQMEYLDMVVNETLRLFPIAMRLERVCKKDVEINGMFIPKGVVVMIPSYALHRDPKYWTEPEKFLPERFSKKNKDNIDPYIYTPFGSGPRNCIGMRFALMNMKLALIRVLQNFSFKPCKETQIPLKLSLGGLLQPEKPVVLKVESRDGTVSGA

CS(=O)(=O)NC(=O)c1cc(-c2ccc(N3CCC(C#N)CC3)nc2)c2c(C3CCC3)nn(-c3ccccc3)c2n1 [Compound 45]
CYP (3A4) mRNA induction, result in words [1]: low CYP3A4 induction | IC50 [2]: 187 nM | fraction unbound at 4 h, 5 μM [3]: 0.0035 | clearance ([4]; male, Sprague-Dawley, plasma, 1 mg/kg, iv dosing, read-out: plasma clearance (converted)): 0.41 mL/min/kg | bioavailability at 24 h ([4]; male, Sprague-Dawley, plasma, 5 mg/kg po): 63.4% | clearance ([4]; male, Sprague-Dawley, plasma, iv, 0.1 mg/kg, formula-strings file, unit inferred, read-out: Cl (converted)): 0.41 mL/min/kg | Vd ([4]; male, Sprague-Dawley, plasma, iv, 0.1 mg/kg, formula-strings file, unit inferred, read-out: Vss): 0.195 L/kg | Vd ([4]; male, Sprague-Dawley, plasma, iv, 1 mg/kg, 1 mg/kg iv, read-out: Vss): 0.2 L/kg | fraction unbound at 4 h, 5 μM [5]: 0.0003 | IC50 [6]: ≥ 50000 nM | mechanism-based inactivation of CYP3A4 [7]: devoid of mechanism-based inactivation

CS(=O)(=O)NC(=O)c1cc(N2CCC(N3CCOCC3)CC2)c2c(C3CCC3)nn(-c3ccccc3)c2n1 [Compound 49]
shift of the potentiator activity ([8]; GLPG1837 potency in triple combination): 1 log unit | Emax ([8]; primary ΔF508 homozygous HBE cells, 24 h incubation, with GLPG2222, read-out: TECC HBE with GLPG2222 % max activation): 534% | EC50 ([8]; primary ΔF508 homozygous HBE cells, 24 h incubation, with GLPG2222, read-out: TECC HBE with GLPG2222 EC50): 39 nM | fraction unbound at 4 h, 5 μM [9]: 0.015 | CYP induction @10 μM (mRNA) % rifampicin ([1]; data generated by AbbVie team): 6.7% | CYP induction @10 μM (mRNA) % rifampicin ([1]; data generated by Galapagos): 12% | CYP (3A4) mRNA induction, result in words [1]: devoid of any CYP induction liability | fraction unbound at 4 h, 5 μM [3]: 0.01 | CLu rat ([4]; iv, unbound clearance): 70 mL/min/kg | clearance ([4]; male, Sprague-Dawley, plasma, 0.1 mg/kg, iv, read-out: CLp rat (converted)): 1 mL/min/kg | half-life ([4]; male, Sprague-Dawley, plasma, 0.1 mg/kg, iv, read-out: t1/2 iv rat (converted)): 4.7 h | Vd ([4]; male, Sprague-Dawley, plasma, iv, 0.1 mg/kg, iv, read-out: Vss rat): 0.4 L/kg | CLu dog ([10]; unbound clearance): 8.3 mL/min/kg | clearance ([10]; male, beagle, plasma, 1 mg/kg, read-out: CLp dog (converted)): 0.333 mL/min/kg | Vd ([10]; male, beagle, plasma, 1 mg/kg, read-out: Vss dog): 0.2 L/kg | half-life ([10]; male, beagle, plasma, 1 mg/kg, read-out: t1/2 iv dog (converted)): 6.6 h | fraction unbound at 4 h, 5 μM [5]: 0.01
